{
  "source": "patent US20180008688A1",
  "about": "“METHOD AND COMPOSITIONS FOR ENHANCING IMMUNOTHERAPEUTIC TREATMENT OF A CANCER” (Augusta University Research Institute, Inc., priority 2016, published 2018)",
  "key": {"[1]": {"system": "p53", "assay": "p53 expression in mononuclear cells of tumors after systemic nutlin-3a (FACS)", "format": "in vivo, mouse", "details": "FIG. 7", "method": "Antibody against the N-terminus of p53 (clone 1C12), used as in Watanabe et al., (2014) Immunity 40: 681-691, was from Cell Signaling Technology. Antibody against the C-terminus p53 (clone PAb122 (Gurney et al., (1980) J. Virol. 34: 752-763) was from Novus Biologicals. For both antibodies, staining was performed following permeablization with eBioscience fix-and-perm. Anti-phospho-p53(Ser15) (clone D4S1H) was from Cell Signaling Technology. For phospho-specific staining, cells were washed in PBS, fixed with 2% paraformaldehyde for 10 min at 37° C., pre-chilled for 1 min, then permeabilized by slow addition of ice-cold methanol to a final concentration of 90%. Cells were then incubated on ice for 30 min, washed with 1% FCS/PBS, blocked with the same solution for 10 min at room temperature, then for 1 h at room temperature and washed. Cells were acquired immediately after staining.\nVO-OHpic was given at 10 mg/kg/day i.p., in 10% DMSO/PBS. Cyclophosphamide was given at 150 mg/kg i.p×1 dose. Oxaliplatin was given at 5 mg/kg i.p×1 dose. Nutlin-3a was dissolved at 2 mg/ml in 10% DMSO in buffered saline and administered daily at 10 mg/kg/day i.p. The 10 mg/kg/day dose was at the lower end of the parenteral dosing range described for mice (Zhang et al., (2011) Drug Meta. Dispos. 39: 15-21). […]"}, "[2]": {"system": "B16F10 tumors", "assay": "Established B16F10 tumors treated with dual checkpoint blockade with or without nutlin-3a", "format": "in vivo, mouse", "method": "In vivo tumor studies: The B16F10 and E.G7 (EL4-OVA) cell lines were obtained from ATCC. B16-OVA (B16F10 transfected with full-length chicken ovalbumin) clone MO4 was according to Falo et al. ((1995) Nat. Med. 1: 649-653). B16F10 cells expressing EGFP protein (B16-GFP cells) were derived using lentiviral transfection. Tumor implantation was performed as described (Sharma et al., (2007) J. Clin. Invest. 117: 2570-2582), using 1×10^5 cells for B16F10 and 1×10^6 cells for other cell lines (large inocula were used to ensure rapid tumor engraftment and immune suppression). Tumors were implanted bilaterally in each mouse as a control for reproducible implantation technique; replicate tumor diameters in a single mouse were typically within ±15%. Tumor volume was calculated from orthogonal diameters using the formula V=L×W^2×π/6. Mice received approved euthanasia when tumors reached a size of 300 mm^2 (product of orthogonal diameters); death was never used a planned endpoint in any study.\nTumor implantation was performed as described (Sharma et al., (2007) J. Clin. Invest. 117: 2570-2582). VO-OHpic was given at 10 mg/kg/day i.p., in 10% DMSO/PBS. Cyclophosphamide was given at 150 mg/kg i.p×1 dose; and oxaliplatin at 5 mg/kg i.p×1 dose. Nutlin-3a was administered daily at 10 mg/kg/day i.p. For checkpoint blockade, mice received anti-CTLA-4 plus a cocktail of antibodies against the PD-1 pathway. […]"}, "[3]": {"system": "E.G7 tumors", "assay": "E.G7/oxaliplatin model in LysMcre/p53-KO hosts with or without nutlin-3a", "format": "in vivo, mouse", "details": "mice lacking myeloid p53; FIG. 8D", "source_text": "To test whether the relevant target of nutlin in tumors was specifically the p53 expression in myeloid dendritic cells, the E.G7/oxaliplatin model in LysMcre/p53-KO hosts was used. If mice lacked the relevant p53 in tumor-associated myeloid cells, then LysMcre/p53-KO mice should lose all anti-tumor effect of nutlin. For these studies, mice received congenically-marked OT-I cells to monitor whether T cells were still rescued by IL-12 in tumors.\nMice with a nuclear-localizing Cre-recombinase knock-in replacing one copy of the Lyz2 gene (Clausen et al., (1999) Transgenic Res. 8: 265-277) (strain 004781, Jax) were crossed as heterozygotes with homozygous p53^flox/flox mice (Marino et al., (2000) Genes Dev. 14: 994-1004) (strain 008462, Jax).\nTumor implantation was performed as described (Sharma et al., (2007) J. Clin. Invest. 117: 2570-2582). VO-OHpic was given at 10 mg/kg/day i.p., in 10% DMSO/PBS. Cyclophosphamide was given at 150 mg/kg i.p×1 dose; and oxaliplatin at 5 mg/kg i.p×1 dose. Nutlin-3a was administered daily at 10 mg/kg/day i.p. For checkpoint blockade, mice received anti-CTLA-4 plus a cocktail of antibodies against the PD-1 pathway. Vaccines and T cell adoptive transfer studies were performed as described (Sharma et al., (2015) Sci. Advances. 1: e1500845)."}, "[4]": {"system": "T cells", "assay": "Purified T cells activated with anti-CD3/CD28 with nutlin, IL-12, MG-132", "format": "cell-based, mouse", "source_text": "Regulation of p53 is complex, and it can be targeted by multiple pathways besides MDM2 (Chao C. C. (2015) Clin. Chim. Acta 438: 139-147). If IL-12 is rescuing T cells from nutlin, one possibility is that IL-12 might activate an alternative pathway of p53 degradation, not dependent on MDM2. To test this, purified T cells were activated (without any antigen-presenting cells or other cells) using anti-CD3/CD28 antibodies. T cells were activated in the presence or absence of nutlin with or without addition of recombinant IL-12.\nFinally, to test the hypothesis that IL-12 targeted p53 for proteolytic degradation via an alternated pathway, proteasomal function was inhibited using MG-132. T cells were activated using immobilized CD3/CD28 as above. […] CFSE proliferation tracked inversely with p53 levels. […] While MG-132 affects many intracellular pathways besides p53, these findings support the basic hypothesis that IL-12 bypasses nutlin by targeting p53 for degradation via an alternative route."}, "[5]": {"details": "nutlin, anti-CD3/CD28 activation"}},
  "note": "Entries after “also recorded” stand apart in the source; their conditions may differ.",
  "data": [
    {"compound": "COc1ccc(C2=NC(c3ccc(Cl)cc3)C(c3ccc(Cl)cc3)N2C(=O)N2CCNC(=O)C2)c(OC(C)C)c1", "note": "(single isomer, unassigned; (-)) [nutlin-3a, (−)-4-(4,5-Bis(4-chlorophenyl)-2-(2-isopropoxy-4-methoxyphenyl)-4,5-dihydro-1H-imidazole-1-carbonyl)piperazin-2-one]", "values": [
      {"measurement": "effect on p53 in remaining tumor cells (negative for CD11c/Ly6c/Gr 1)", "setting": "[1]", "value": "little effect"},
      {"measurement": "increase in p53 levels in CD11c+ cells and myeloid cells in tumors", "setting": "[1]; systemic nutlin-3a, including Ly6c+CD11c^NEG myeloid precursors", "value": "2-3 fold"},
      {"measurement": "Ly6C+/CD103+ dendritic cells in tumors", "setting": "[2]; nutlin added to checkpoint blockade, after 2 weeks of treatment", "value": "maintained large numbers"},
      {"measurement": "anti-tumor effect", "setting": "[2]; nutlin-3a 10 mg/kg/day i.p. added to dual checkpoint blockade, FIG. 8A", "value": "significantly enhanced and prolonged the effect of treatment"},
      {"measurement": "anti-tumor effect of nutlin-3a", "setting": "[3]", "value": "lost all anti-tumor effects; also recorded: lost all ability to enhance anti-tumor immunity"},
      {"measurement": "T cell proliferation", "setting": "[4]; [5]", "value": "suppressed proliferation of T cells"},
      {"measurement": "p53 levels in activated T cells", "setting": "[4]; [5]", "value": "progressively restored, and then markedly elevated"},
      {"measurement": "p53 levels in activated T cells", "setting": "[4]; nutlin, anti-CD3/CD28 activation, listed as Nutlin", "value": "blocked the down-regulation of p53"},
      {"measurement": "effect of nutlin on p53-deficient T cells", "setting": "[4]; p53-deficient T cells", "value": "no inhibitory effect"}
    ]}
  ]
}
